A word on the IC50: it is the midpoint of a concentration-inhibition curve. Higher therefore signals weaker potency.

T1 sequence (Q07343 1-564 isoform Q07343-2): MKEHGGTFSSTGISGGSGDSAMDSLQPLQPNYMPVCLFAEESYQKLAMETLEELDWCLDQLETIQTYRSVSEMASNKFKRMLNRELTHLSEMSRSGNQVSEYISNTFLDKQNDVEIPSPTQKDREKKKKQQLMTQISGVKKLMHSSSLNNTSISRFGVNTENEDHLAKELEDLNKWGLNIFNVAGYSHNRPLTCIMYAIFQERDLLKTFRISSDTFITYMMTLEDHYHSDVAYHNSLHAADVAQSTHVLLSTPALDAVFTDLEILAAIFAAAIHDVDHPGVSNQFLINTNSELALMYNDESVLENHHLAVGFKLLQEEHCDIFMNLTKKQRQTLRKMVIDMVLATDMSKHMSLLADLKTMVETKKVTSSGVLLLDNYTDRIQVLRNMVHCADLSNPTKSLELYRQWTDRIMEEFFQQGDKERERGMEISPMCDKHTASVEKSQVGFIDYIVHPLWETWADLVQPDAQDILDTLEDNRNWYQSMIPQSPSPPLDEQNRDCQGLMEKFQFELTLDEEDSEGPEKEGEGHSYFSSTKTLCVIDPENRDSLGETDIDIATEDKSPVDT

The test has as its target T1, PDE4B2 (Homo sapiens, UniProt Q07343).
T1 construct: purchased BPS bioscience 60042
Description: Inhibitory effect on PDE4 enzyme (AMP-Glo Assay kit), PDE4B2. Particulars: cAMP substrate, 60 minutes at room temperature, AMP-Glo detection. It counts as biochemical. From the text:
PDE4 enzyme can hydrolyze cAMP to produce AMP. The synthetic PDE4 enzyme inhibitor act together with PDE4 enzyme and the substrate cAMP for a certain period of time, and then the AMP-Glo™ Assay kit was used for detection. The detection is divided into two steps: first, converting the AMP produced in the reaction into ADP, and second, converting ADP into ATP. ATP binds to the reagent and emits […]. The fluorescence value is detected using an […]. IC50 value of the PDE4 enzyme inhibitor was calculated by plotting a graph with the […] values. The specific details are as follows:
The compound plate was centrifuged at 1000 rpm for 1 minute.
% Inhibition={1−(Average RLU of the compound−Average RLU of the positive control of the whole plate)/(Average RLU of the negative control of the whole plate−Average RLU of the positive control of the whole plate)}
The IC50 is calculated by fitting the % inhibition values and the logarithm of the compound concentration to a non-linear regression (dose response-variable slope) using Graphpad 8.0.
`[O-][S@+]1CCc2nc(N3CCc4oc(C5CCCCC5)nc4C3)nc(NC3(CO)CCC3)c21` [Example 5, (R)-2-(2-cyclohexyl-6,7-dihydrooxazolo[4,5-c]pyridin-5(4H)-yl)-4-((1-(hydroxymethyl)cyclobutyl)amino)-6,7-dihydrothieno[3,2-d]pyrimidine 5-oxide] displayed an IC50 of 0.93 nM. Turning to `[O-][S@+]1CCc2nc(N3CCc4c(cnn4-c4ccccc4)C3)nc(NC3(CO)CCC3)c21` [Example 12, (R)-4-((1-(hydroxymethyl)cyclobutyl)amino)-2-(1-phenyl-1,4,6,7-tetrahydro-5H-pyrazolo[4,3-c]pyridin-5-yl)-6,7-dihydrothieno[3,2-d]pyrimidine-5-oxide], the IC50 came to 0.63 nM. Take `Cc1cc(C(F)(F)F)c(CNc2nc(N3CCc4oc(-c5ccc(F)cc5)nc4C3)nc3c2[S@+]([O-])CC3)c(=O)[nH]1` [Example 17, (R)-3-(((2-(2-(4-fluorophenyl)-6,7-dihydrooxazolo[4,5-c]pyridin-5(4H)-yl)-5-oxido-6,7-dihydrothieno[3,2-d]pyrimidin-4-yl)amino)methyl)-6-methyl-4-(trifluoromethyl)pyridin-2(1H)-one]: the IC50 amounted to 8.9 nM.

As for `COc1nc(C)cc(C)c1CNc1nc(N2CCc3oc(-c4ccc(F)cc4)nc3C2)nc2c1[S@+]([O-])CC2` [Example 18, (R)-2-(2-(4-fluorophenyl)-6,7-dihydrooxazolo[4,5-c]pyridin-5(4H)-yl)-4-(((2-methoxy-4,6-dimethylpyridin-3-yl)methyl)amino)-6,7-dihydrothieno[3,2-d]pyrimidine 5-oxide], the IC50 turned out to be 0.5 nM.

`[O-][S@+]1CCc2nc(N3CCc4cc(-c5ncccn5)ccc4C3)nc(NC34CC(CO)(C3)C4)c21` [Example 24, (R)-4-((3-(hydroxymethyl)bicyclo[1.1.1]pentan-1-yl)amino)-2-(6-(pyrimidin-2-yl)-3,4-dihydroisoquinolin-2(1H)-yl)-6,7-dihydrothieno[3,2-d]pyrimidine 5-oxide] returned an IC50 of less than 0.1 nM.

The record behind these values is patent US20260008788A1, “AZA-FUSED RING COMPOUND, PREPARATION METHOD THEREFOR, AND USE THEREOF IN MEDICINE” (SUZHOU ARK BIOPHARMACEUTICAL CO., LTD., priority 2022, published 2026).
